Entries after “also recorded” stand apart in the source; their conditions may differ. Where two headings read alike, the source gives them in different places.
Assays:
[1] = molecular target: mouse leptin (Mus musculus, UniProt P41160); assay: IC50 for human CRP against mouse leptin (leptin binding to OB-Rb HEK293 cells); conditions: in the presence of about 2 ng/ml mouse leptin
[2] = system: leptin-induced tyrosine phosphorylation of STAT3; assay: Leptin-induced STAT3 tyrosine phosphorylation in HEK293 cells expressing OB-Rb (western blot), human leptin; format: cell-based; conditions: for effect on leptin-induced tyrosine phosphorylation of STAT3: human leptin 2 nM, protein pre-incubated with leptin, HEK293 OB-Rb cells
Method: (§1) 2. Signaling Studies: A HEK293 cell line stably expressing the human long-form receptor, OB-Rb (M. Friedman-Einat et al., 2003, Regul. Pept. 111, 77) was serum starved for 2-h before addition of leptin and CRP. Leptin (SEQ ID NO:4), in the presence or absence of C-reactive proteins, was pre-incubated in μ-MEM for 30 minutes at 37° C. before applied to the cells. After a 30-incubation with leptin (SEQ ID NO:4), the cells were harvested in a previously described protein lysis buffer. A. Z. Zhao et al., 1997, Proc. Natl. Acad. Sci. U.S.A. 94, 322. The protein extract was subjected to a western blot assay with an anti-phospho-STAT3 specific antibody (Cell Signaling, Beverly, Mass.). For studies involving the primary hypothalamic neurons, the rat hypothalamus was surgically isolated right after euthanasia, and immediately placed in the DMEM for incubation with leptin in the presence or absence of CRP.
(§2) To determine if the interaction between CRP and leptin influences cellular actions of leptin, we assessed the ability of leptin to stimulate tyrosine phosphorylation of STAT3 and PI3-kinase activity in the presence of CRP in vitro.

[3] = system: ob/ob mice; assay: Infusion of human CRP and/or human leptin by osmotic pumps into ob/ob mice; format: in vivo, mouse; conditions: for body weight / food-intake: human CRP alone, without co-infusion of leptin; for effect on leptin-regulated body weight / effect on leptin-regulated food-intake: 6 days
Method: 3(a). In vivo assessment of CRP functions: The micro-osmotic pumps (#1007D, DURECT, Cupertino, Calif.) were subcutaneously imbedded in the ob/ob or wild-type mice according to the instructions of the manufacturer. The osmotic pumps were pre-filled with saline, CRP, leptin or leptin plus CRP. Food-intake (24-h), body weight, and body temperature were monitored daily post-surgery. Blood glucose concentrations were measured from the tail-vein blood samples right before and at the end of infusion with a Precision Plus glucose meter (Medisense, Abbot Park, Ill.).
(§3) 3(b) Assessment of serum leptin insulin, and CRP: Human- and mouse-leptin concentrations were measured with the ELISA kit from CHEMICON (Temecular, Calif.) and R&D Systems (Minneapolis, Minn.), respectively, according to the instructions of the manufacturer. Serum mouse insulin concentrations were determined with an ELISA assay (LINCO Research, St. Charles, Mo.). Human CRP concentrations were also evaluated with an ELISA kit (Alpha Diagnostics International, San Antonio, Tex.).
3(c) Measurement of serum- and tissue-triglycerides: Serum- and tissue-triglycerides were determined with the protocols described in J. N. Huan et al., 2003, J. Biol. Chem. 278, 45638. […]

[4] = molecular target: T1, human leptin (Homo sapiens, UniProt P41159); assay: Immunoprecipitation of human CRP with human leptin; format: binding; conditions: leptin/CRP mixture and human serum
T1 sequence (P41159 22-167): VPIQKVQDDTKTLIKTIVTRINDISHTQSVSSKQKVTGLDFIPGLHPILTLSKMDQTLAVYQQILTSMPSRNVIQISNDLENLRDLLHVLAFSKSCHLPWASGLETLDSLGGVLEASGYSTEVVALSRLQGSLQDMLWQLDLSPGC
Method: Direct binding of […] and leptin in an immunoprecipitation assay was determined. Rat CRP was purified from fresh rat serum to >95% employing a previously established affinity-purification protocol. J. Tseng et al., 1988, Mol. Immunol. 25, 679. This purity is very similar to the human CRP preparation obtained from a commercial source (CHEMICON International). The purified human- and rat-CRP proteins were pre-mixed with recombinant human and mouse leptin, respectively, before addition of specific antibodies against human- and mouse-leptin. The concentrations of CRP and leptin in the precipitation reaction were all within the physiological ranges (M. B. Schulze et al., 2004, Diabetes Care 27, 889; T. Kazumi et al., 2003, Metabolism 52, 1113).
In parallel experiments, recombinant leptin was also pre-mixed with human- or rat serum to allow for potential direct interactions prior to immunoprecipitation. The precipitation pellets obtained were subjected to western blot assays with specific anti-CRP antibodies. […] Because of the similarities between rat CRP and human CRP in the binding to leptin and of our main interest in the relevance to human obesity, focus was placed on potential functional effects of human CRP in the subsequent experiments.

[5] = molecular target: T1, human leptin; assay: IC50 for human CRP against human leptin (125I-leptin binding to OBR-expressing HEK293 cells); conditions: in the presence of about 2 ng/ml human leptin
Method: 4. Measurement of IC50 for human CRP against human leptin: Human leptin was iodinated with Na^125I using the lodogen method. Briefly, 15 μg of human leptin in 100 mM Phosphate buffer pH 7.5 were incubated with 1 mCi of carrier-free Na^125I (2200 Ci/mmol) in a glass tube containing 50 μg Iodogen. After 10 minute incubation at room temperature, the reaction was stopped with 100 μl 0.1% trifluoroacetic acid (TFA). The reaction mixture was immediately purified by reverse-phase HPLC. The separation employed a 5 minute isocratic step at 20% eluant B in A, followed by two consecutive 30 minute linear gradients from 20 to 50%, then from 50 to 60% eluant B in A (where eluant A is water containing 0.1% TFA and eluant B is acetonitrile containing 0.1% TFA) at a flow rate of 1.5 ml/min. The ^125I-labeled leptin (˜2 ng/ml) was pre-incubated with various concentrations of human CRP in 1 ml of μ-MEM for 30 minute before added to the OBR-expressing HEK293 cells. The incubation would last for 3 hours at 4° C. before the media was aspirated and the cells were dissolved in 0.1N NaOH for scintillation counting.
To examine if human CRP interferes with the binding of human leptin to its receptors, we used a HEK293 cell line stably transfected with the long-form human leptin receptor, OB-Rb. The characterization of this cell line has been reported in earlier studies. M. Friedman-Einat et al., 2003, Regul. Pept. […]

[6] = Serum levels of infused human CRP and human leptin in ob/ob mice (ELISA); format: in vivo, mouse
Method: as §3

[7] = system: insulin-stimulated PI3-kinase; assay: Insulin-stimulated PI3-kinase activity in differentiated 3T3-L1 adipocytes (specificity control); format: cell-based
[8] = system: human IL6-stimulated tyrosine phosphorylation of STAT3; assay: IL6-stimulated STAT3 phosphorylation in human primary hepatocytes (specificity control); format: cell-based
[9] = system: mouse leptin-induced STAT3 activation; assay: Leptin-induced STAT3 tyrosine phosphorylation in HEK293 cells expressing OB-Rb, mouse leptin; format: cell-based; conditions: murine leptin 2 nM
Method: as §1, §2

[10] = system: leptin signaling in rat primary hypothalamic neurons; assay: Leptin signaling (phospho-STAT3 and PI3-kinase assays) in rat primary hypothalamic neurons; format: cell-based; conditions: human leptin, rat primary hypothalamic ex-plants
Method: as §1
Previous studies have reported a requirement of both JAK-STAT and PI3-kinase pathways in mediating leptin signaling within the hypothalamus. C. Vaisse et al., 1996, Nat. Genet. 14, 95; A. Z. Zhao et al., 2002, Nat. Neurosci. 5, 727; K. D. Niswender et al., 2001, Nature 413, 794. The effects of human CRP on leptin signaling in rat primary hypothalamic ex-plants were also tested (FIG. 4D).

[11] = human CRP high dosage 40 μg/day co-infused with human leptin
[12] = human CRP high dosage co-infused with leptin
[13] = human CRP low dosage 10 μg/day co-infused with human leptin

mouse leptin, sequence (P41160 22-167): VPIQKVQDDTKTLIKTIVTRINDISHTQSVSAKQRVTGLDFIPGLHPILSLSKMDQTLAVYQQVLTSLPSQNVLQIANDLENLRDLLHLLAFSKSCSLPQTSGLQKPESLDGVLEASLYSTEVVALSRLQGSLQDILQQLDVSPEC

human CRP: human C-reactive protein preparation obtained from a commercial source (CHEMICON International)
IC50 of human CRP towards mouse leptin [1]: greater than 64 μg/ml
calcium dependence of attenuation of leptin signaling ([2]; excess EGTA added to the incubation medium): requires the presence of calcium ions
effect on leptin-induced tyrosine phosphorylation of STAT3 [2]: attenuate the tyrosine-phosphorylation of STAT3; also recorded: Attenuating effects; also recorded: caused the reduction of leptin-stimulated STAT3 activation
effect on leptin-induced tyrosine phosphorylation of STAT3 ([2]; listed as Human CRP): suppressed the activation of STAT3 by leptin
leptin-stimulated STAT3 activation in hypothalamic tissues ([3]; high dose CRP co-infused with leptin): blocked by co-infusion of CRP with leptin
body weight [3]: did not affect food-intake or body weight
food-intake [3]: did not affect food-intake or body weight
body weight ([3]; listed as CRP): does not influence food-intake and body-weight
food-intake ([3]; listed as CRP): does not influence food-intake and body-weight
effect on leptin-regulated body weight [3, 11]: completely blocked the actions of leptin to restrain appetite and induce weight loss; also recorded: completely blocked the effects of leptin
effect on leptin-regulated food-intake [3, 11]: completely blocked the actions of leptin to restrain appetite and induce weight loss; also recorded: completely blocked the effects of leptin
effect on leptin-regulated rectal temperature ([3]; human CRP high dosage co-infused with human leptin): attenuation of leptin-induced energy expenditure; also recorded: completely blocked the effects of leptin on rectal temperature
effect on leptin-induced change in blood glucose [3, 12]: blocked these effects of leptin; also recorded: completely blocked leptin-induced beneficial effects
effect on leptin-induced change in hepatic triglycerides [3, 12]: blocked these effects of leptin; also recorded: completely blocked leptin-induced beneficial effects
effect on leptin-induced change in serum insulin [3, 12]: blocked these effects of leptin; also recorded: completely blocked leptin-induced beneficial effects
effect on leptin-induced change in serum triglycerides [3, 12]: blocked these effects of leptin; also recorded: completely blocked leptin-induced beneficial effects
effect on leptin-regulated body weight [3, 13]: only partially attenuated these effects of human leptin; also recorded: only partially blocked leptin's effect
effect on leptin-regulated food-intake [3, 13]: only partially attenuated these effects of human leptin; also recorded: only partially blocked leptin's effect
direct binding to human leptin (immunoprecipitation with anti human-leptin, anti-CRP western blot) [4]: could pull down human CRP
IC50 of CRP for reduction of 125I-labeled human leptin binding to its receptors [5]: approximately 80 ng/ml
serum concentration of human CRP ([6]; end of infusion, human CRP 48 μg/day/mouse): 850 ± 100 ng/mL
serum concentrations of human CRP attained ([6]; human CRP infused at 10 or 40 μg/day): well within the physiological range observed in human plasma
effect on insulin-stimulated PI3-kinase activity [7]: did not suppress; also recorded: does not affect insulin-stimulated PI3-kinase activity
effect on IL6-stimulated tyrosine phosphorylation of STAT3 [8]: did not suppress IL-6 induced activation of STAT3
effect on IL6-stimulated tyrosine phosphorylation of STAT3 ([8]; listed as Human CRP): does not affect human IL6-stimulated tyrosine phosphorylation of STAT3
effect on mouse leptin-induced STAT3 phosphorylation [9]: less efficient in blocking the signaling capacity of mouse leptin; also recorded: unable to block leptin-induced STAT3 activation
effect on leptin signaling (phospho-STAT3 and PI3-kinase) [10]: inhibited leptin signaling in primary hypothalamic neurons

Reference: US7629315B2, “Compositions for blocking the inhibitory effect of human CRP on human leptin” (University of Pittsburgh of the Commonwealth System of …, priority 2005, dated 2009)
